Experimental data reported in patent publication US7632413B2, “Process for treating a liquid medium using ultrasound” (Ashland Licensing and Intellectual Property LLC, priority 2002, dated 2009).

Tested on: K562 cells
Experiment: Annexin-V/PI assay of ultrasonically induced apoptosis in the presence of active oxygen scavengers
Assay type: cell-based, Human
Settings: L-histidine 10 mM and/or mannitol 100 mM; for percentage of cells displaying phosphatidylserine externalization: 5 hours post-treatment, mean ± SEM, 4 experiments
Method: Human leukemia cell lines (K562, Nalm-6, KG1a, and HL-60) obtained from the American Type Culture Collection (ATCC, Rockville, Md., USA) were grown in RPMI-1640 (BioWhittaker, Walkersville, Md., USA) supplemented with 10% fetal calf serum (Gibco, Grand Island, N.Y., USA) and 1% L-glutamine (Gibco). Leukemic cells were harvested, resuspended in phosphate-buffered saline (PBS, pH=7.2, Gibco), and immediately used for the experiment. Heparinized venous blood was obtained from healthy volunteers and leukemic patients. Mononuclear cells were separated by Ficoll-Hypaque gradient density centrifugation (International Medical Products, Brussels, Belgium). The following describes the ultrasonic treatment on the cells. Human leukemia cell lines (K562, HL-60, KG1a, and Nalm-6), primary leukemic cells, and normal mononuclear cells were treated by ultrasound at a frequency of 1.8 MHz during various exposure times at an acoustical power of 7 mW/mL and irradiation (ON/OFF) cycles of 5.5 ms/3 ms. During apoptosis, phosphatidylserine residues flip from the inside to the outside of the plasma membrane and this change can be detected using Annexin-FITC, which binds to the PS residues. The following describes an Annexin V binding assay that was performed. Flow cytometric analysis of Annexin-V-fluorescein isothiocyanate (FITC)-and propidium iodide (PI)-stained cells was performed using the kit purchased from Biosource International (Camarillo, Calif., USA) as recommended by the manufacturer. Data were presented as dot plots showing the change in mean fluorescence intensity of Annexin-V-FITC/propidium iodide (not shown). The following procedure was performed to determine the effect of active oxygen scavengers on the induction of apoptosis by high-frequency ultrasound. K562 cells were incubated with L-histidine (10 mM) and/or mannitol (100 mM). Some cells were treated by high-frequency ultrasound and others were not. Cell apoptosis was detected by an Annexin-V/PI assay.

SMILES: N[C@@H](Cc1c[nH]cn1)C(=O)O [Histidine, L-histidine]
- percentage of cells displaying phosphatidylserine externalization (1 US treatment): 24 ± 8%
- percentage of cells displaying phosphatidylserine externalization (3 US treatments): 36 ± 11%
- percentage of cells displaying phosphatidylserine externalization (No US treatment): 15 ± 5%
- inhibition of apoptosis (apoptosis induced by 3 successive ultrasound treatments): 43%

SMILES: OC[C@@H](O)[C@@H](O)[C@H](O)[C@H](O)CO [Mannitol, mannitol]
- percentage of cells displaying phosphatidylserine externalization (1 US treatment): 21 ± 5%
- percentage of cells displaying phosphatidylserine externalization (3 US treatments): 30 ± 3%
- inhibition at 100000 µM (Homo sapiens, K562, apoptosis induced by 3 successive ultrasound treatments): 47%
- percentage of cells displaying phosphatidylserine externalization (No US treatment): 11 ± 4%
